The values that follow come from patent US11999727B2 (Tango Therapeutics, Inc., priority 2020, dated 2024).

Assay [1] concerns the target T1, PRMT5 (Homo sapiens, UniProt O14744).
T1 construct: purchased Viva (custom protein)
The assay is described as follows: PRMT5 biochemical IC50 assay with no cofactor. Conditions: PRMT5, no cofactor. The text has this:
Table 1 indicates IC50 values (μM) against PRMT5 for exemplary compounds in the presence of SAM as cofactor, with no cofactor, and with MTA as cofactor, respectively (columns 4-6). […] Ki values can be calculated from the IC50 values as described in the Examples section. As detailed in the Examples section, for the assay performed in the presence of SAM, IC50=Ki×1.5 (Ki=IC50/1.5).

The test system of assay [2] is HAP1 MTAP-deleted cell line. Nature of the assay: Viability assay, MTAP-deleted cell line. In kind it is cell-based. Conditions: Homo sapiens, read-out: HAP1 MTAP deleted viability. An excerpt: Table 1 additionally indicates IC50 values in a viability assay for the MTAP-deleted cell line (column 10), indicating the effect of treatment with compound on cell survival.

In assay [3] the test system is HAP1 MTAP-intact cell line. Nature of the assay: SDMA in-cell western assay, HAP1 MTAP-intact. In kind it is cell-based. Conditions: Homo sapiens, HAP1, SDMA in-cell western, HAP1 MTAP-intact; read-out: MTAP HAP1 intact IC50. In short, it runs like this: (§1)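 Readout: in-cell western detection of SDMA. Cells: HAP1 expressing endogenous MTAP and an MTAP-null HAP1 counterpart. Output: IC50.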

Assay [4] deals with HAP1 MTAP-deleted cell line. Nature of the assay: SDMA in-cell western assay, HAP1 MTAP-deleted. The format is cell-based. Conditions: for IC50: Homo sapiens, HAP1, SDMA in-cell western, HAP1 MTAP-deleted; for MTAP intact/deleted ratio: SDMA in-cell western. In short, it runs like this: as §1
For assay [5], the target named is T1, PRMT5. The assay is described as follows: PRMT5 biochemical IC50 assay with SAM as cofactor. The conditions noted are these: PRMT5, SAM as cofactor; read-out: SAM IC50.
Assay [6] concerns the target T1, PRMT5. Nature of the assay: PRMT5 biochemical IC50 assay with MTA as cofactor. Conditions: PRMT5, MTA as cofactor; read-out: MTA IC50.
Where [7] appears, read: HAP1, viability assay, MTAP-deleted cell line.
Where [8] appears, read: read-out: HAP1 MTAP deleted IC50.
Setting [9] is: IC50 ratio HAP1 MTAP-intact / HAP1 MTAP-deleted.
Setting [10] is: read-out: No Cofactor/ rel IC50.
Where [11] appears, read: read-out: HAP 1 MTAP deleted IC50.

Some results are limits rather than exact numbers.

T1 sequence (O14744 whole entry): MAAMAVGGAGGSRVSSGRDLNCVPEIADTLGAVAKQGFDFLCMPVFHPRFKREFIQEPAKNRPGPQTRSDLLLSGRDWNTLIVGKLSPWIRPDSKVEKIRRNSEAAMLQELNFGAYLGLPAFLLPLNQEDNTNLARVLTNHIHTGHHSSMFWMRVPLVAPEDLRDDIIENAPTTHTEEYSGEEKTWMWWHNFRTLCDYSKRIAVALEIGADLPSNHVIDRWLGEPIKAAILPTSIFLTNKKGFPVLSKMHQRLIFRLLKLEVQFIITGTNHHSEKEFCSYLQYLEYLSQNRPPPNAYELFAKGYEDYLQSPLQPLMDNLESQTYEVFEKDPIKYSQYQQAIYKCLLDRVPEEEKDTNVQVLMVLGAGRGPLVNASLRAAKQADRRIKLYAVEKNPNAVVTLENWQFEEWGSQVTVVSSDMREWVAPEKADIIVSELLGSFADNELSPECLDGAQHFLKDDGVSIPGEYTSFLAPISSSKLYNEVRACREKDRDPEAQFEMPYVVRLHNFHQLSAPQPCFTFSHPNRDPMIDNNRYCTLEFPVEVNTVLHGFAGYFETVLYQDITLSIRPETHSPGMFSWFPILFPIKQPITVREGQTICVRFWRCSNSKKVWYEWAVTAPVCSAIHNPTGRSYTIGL
T1 sequence (Q9BQA1 whole entry partner): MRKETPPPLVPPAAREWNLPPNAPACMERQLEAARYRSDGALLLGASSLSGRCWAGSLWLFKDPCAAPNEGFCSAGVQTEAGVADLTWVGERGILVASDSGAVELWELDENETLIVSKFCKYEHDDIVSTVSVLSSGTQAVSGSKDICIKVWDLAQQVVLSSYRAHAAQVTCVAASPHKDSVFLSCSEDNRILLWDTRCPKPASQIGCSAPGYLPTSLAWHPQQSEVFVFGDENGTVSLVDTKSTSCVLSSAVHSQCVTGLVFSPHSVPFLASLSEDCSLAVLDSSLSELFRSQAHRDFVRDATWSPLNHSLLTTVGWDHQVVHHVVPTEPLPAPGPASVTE

For `Cc1cc(NC(=O)C(=O)N2CC(C)CC(C)C2c2ccccc2)cnc1N` (mixture of isomers) [Compound 314, N-(6-amino-5-methyl-3-pyridyl)-2-(3,5-dimethyl-2-phenyl-1-piperidyl)-2-oxo-acetamide], the IC50 at PRMT5 [1] (read-out: No Cofactor/rel IC50) is 50 to 500 nM; in assay [2] (setting [7]) it was 1000 to 10000 nM; in assay [3] it was above 1000 nM; in assay [4] (setting [8]), 100 to 1000 nM; at PRMT5 [5], above 500 nM; at PRMT5 [6], 50 to 500 nM. Moreover, in assay [4] (setting [9]), the MTAP intact/deleted ratio entry is recorded as “A (an IC50 ratio greater than or equal to 10 fold)”.

Take `CCc1cc(NC(=O)C(=O)N2C[C@@H](C)CC[C@@H]2c2ccc3sc(CC(C)N(C)C)nc3c2)cnc1N` (mixture of isomers) [Compound 1345, N-(6-amino-5-ethylpyridin-3-yl)-2-((2R,5S)-2-(2-(2-(dimethylamino)propyl)benzo[d]thiazol-5-yl)-5-methylpiperidin-1-yl)-2-oxoacetamide]: the IC50 on PRMT5 [1] (setting [10]) was below 50 nM; in assay [2] (HAP1, viability, HAP1 MTAP-deleted cell line), below 1000 nM; in assay [3], below 100 nM; in assay [4] (setting [11]) it was below 100 nM; on PRMT5 [5] it was 50 to 500 nM; at PRMT5 [6], below 50 nM. The “MTAP intact/deleted ratio” value in assay [4] (setting [9]) is “A (an IC50 ratio greater than or equal to 10 fold)”.

Take `Cc1cncc(NC(=O)C(=O)N2C[C@H](C)CC[C@H]2c2cccc(C)c2)c1` (racemic) [Compound 8, rac-2-[(2R,5S)-5-methyl-2-(m-tolyl)-1-piperidyl]-N-(5-methyl-3-pyridyl)-2-oxo-acetamide]: the IC50 was above 500 nM at PRMT5 [1] (setting [10]); above 10000 nM in assay [2] (setting [7]); above 1000 nM in assay [3]; above 1000 nM in assay [4] (setting [11]); above 500 nM on PRMT5 [5]; 50 to 500 nM at PRMT5 [6]. Moreover, the “MTAP intact/deleted ratio” value in assay [4] (setting [9]) is on record as “C (an IC50 ratio of less than 3 fold)”.

In the case of `Cc1cncc(NC(=O)C(=O)N2C[C@H](C)CC[C@H]2c2cccc(Cl)c2)c1` (racemic) [Compound 13, 2-[(2R,5S)-2-(3-chlorophenyl)-5-methyl-1-piperidyl]-N-(5-methyl-3-pyridyl)-2-oxo-acetamide], the IC50 at PRMT5 [1] (setting [10]) is above 500 nM; in assay [2] (setting [7]), above 10000 nM; in assay [3], above 1000 nM; in assay [4] (setting [11]) it was above 1000 nM; on PRMT5 [5] it was above 500 nM; on PRMT5 [6] it was 50 to 500 nM. Besides, the “MTAP intact/deleted ratio” value in assay [4] (setting [9]) is recorded as “C (an IC50 ratio of less than 3 fold)”.

Turning to `Cc1cncc(NC(=O)C(=O)N2C[C@H](C)CC[C@H]2c2ccnc(C)c2)c1` (racemic) [Compound 14, 2-[(2S,5R)-5-methyl-2-(2-methyl-4-pyridyl)-1-piperidyl]-N-(5-methyl-3-pyridyl)-2-oxo-acetamide], the IC50 on PRMT5 [1] (setting [10]) was above 500 nM; in assay [2] (setting [7]), above 10000 nM; in assay [3] it was above 1000 nM; in assay [4] (setting [11]), above 1000 nM; on PRMT5 [5] it was 50 to 500 nM; at PRMT5 [6] it was 50 to 500 nM. Also, the “MTAP intact/deleted ratio” value in assay [4] (setting [9]) is reported as “C (an IC50 ratio of less than 3 fold)”.

Consider `COc1cccc([C@@H]2CC[C@@H](C)CN2C(=O)C(=O)Nc2cncc(C)c2)c1` (racemic) [Compound 28, rac-2-((2R,5S)-2-(3-methoxyphenyl)-5-methylpiperidin-1-yl)-N-(5-methylpyridin-3-yl)-2-oxoacetamide], for which the IC50 on PRMT5 [1] (setting [10]) was 50 to 500 nM; in assay [2] (setting [7]), above 10000 nM; in assay [3] it was above 1000 nM; in assay [4] (setting [11]) it was above 1000 nM; on PRMT5 [5], 50 to 500 nM; at PRMT5 [6], 50 to 500 nM. Moreover, in assay [4] (setting [9]), the “MTAP intact/deleted ratio” value is given as “C (an IC50 ratio of less than 3 fold)”.

As for `Cc1cccc(C2CCCCN2C(=O)C(=O)Nc2cnc(N)c(C)c2)c1` (racemic) [Compound 31, N-(6-Amino-5-methyl-3-pyridyl)-2-[2-(m-tolyl)-1-piperidyl]-2-oxo-acetamide], the IC50 at PRMT5 [1] (setting [10]) was 50 to 500 nM; in assay [2] (setting [7]), above 10000 nM; in assay [3], above 1000 nM; in assay [4] (setting [11]) it was 100 to 1000 nM; at PRMT5 [5] it was 50 to 500 nM; on PRMT5 [6], below 50 nM. In assay [4] (setting [9]), the “MTAP intact/deleted ratio” value is “A (an IC50 ratio greater than or equal to 10 fold)”.

Regarding `Cc1cc(NC(=O)C(=O)N2CCCCC2c2ccncc2)cnc1N` (racemic) [Compound 36, N-(6-Amino-5-methyl-3-pyridyl)-2-oxo-2-[2-(4-pyridyl)-1-piperidyl]acetamide], the IC50 was 50 to 500 nM at PRMT5 [1] (setting [10]); above 10000 nM in assay [2] (setting [7]); above 1000 nM in assay [3]; 100 to 1000 nM in assay [4] (setting [11]); 50 to 500 nM at PRMT5 [5]; below 50 nM at PRMT5 [6]. Moreover, the “MTAP intact/deleted ratio” value in assay [4] (setting [9]) is “A (an IC50 ratio greater than or equal to 10 fold)”.

Regarding `CNC(=O)c1cccc([C@H]2CC[C@H](C)CN2C(=O)C(=O)Nc2cncc(C)c2)c1` (racemic) [Compound 48, N-methyl-3-[(2R,5S)-5-methyl-1-[2-[(5-methyl-3-pyridyl)amino]-2-oxo-acetyl]-2-piperidyl]benzamide], the IC50 on PRMT5 [1] (setting [10]) was 50 to 500 nM; in assay [2] (setting [7]) it was above 10000 nM; in assay [3] it was above 1000 nM; in assay [4] (setting [11]) it was above 1000 nM; at PRMT5 [5], 50 to 500 nM; at PRMT5 [6], 50 to 500 nM. Further, the “MTAP intact/deleted ratio” value in assay [4] (setting [9]) was “C (an IC50 ratio of less than 3 fold)”.

Turning to `Cc1cc(NC(=O)C(=O)N2CCCCC2c2ccccc2)cnc1N` (racemic) [Compound 53, N-(6-Amino-5-methyl-3-pyridyl)-2-oxo-2-(2-phenyl-1-piperidyl)acetamide], the IC50 at PRMT5 [1] (setting [10]) is 50 to 500 nM; in assay [2] (setting [7]), above 10000 nM; in assay [3], above 1000 nM; in assay [4] (setting [11]), 100 to 1000 nM; at PRMT5 [5], 50 to 500 nM; on PRMT5 [6], below 50 nM. Moreover, in assay [4] (setting [9]), the “MTAP intact/deleted ratio” value was “A (an IC50 ratio greater than or equal to 10 fold)”.

`Cc1cncc(NC(=O)C(=O)N2C[C@@H](C)CC[C@@H]2c2cccs2)c1` (single isomer, unassigned) [Compound 76]: the IC50 at PRMT5 [1] (setting [10]) is above 500 nM; in assay [2] (setting [7]), above 10000 nM; in assay [3] it was above 1000 nM; at PRMT5 [5] it was above 500 nM; on PRMT5 [6], above 500 nM.

For `CCc1cc(NC(=O)C(=O)N2C[C@@H](C)CC[C@@H]2c2cc3cn[nH]c3s2)cnc1N` (single isomer, unassigned) [Compound 1075], the IC50 on PRMT5 [1] (read-out: No Cofactor/rel IC50) is below 50 nM; in assay [3], 100 to 1000 nM; in assay [4] (setting [8]), below 100 nM; at PRMT5 [5], 50 to 500 nM; on PRMT5 [6] it was below 50 nM. In assay [4] (IC50 ratio HAP1 MTAP-intact vs HAP1 MTAP-deleted), the MTAP intact/deleted ratio entry is “A (an IC50 ratio greater than or equal to 10 fold)”.

For `COc1ncc(NC(=O)C(=O)N2C[C@@H](C)CC[C@@H]2c2ccc(F)cc2)cc1C(F)F` [Compound 1057, N-[5-(Difluoromethyl)-6-methoxy-3-pyridyl]-2-[(2R,5S)-2-(4-fluorophenyl)-5-methyl-1-piperidyl]-2-oxo-acetamide], the IC50 on PRMT5 [1] (read-out: No Cofactor/rel IC50) was 50 to 500 nM; in assay [3], above 1000 nM; in assay [4] (setting [11]), above 1000 nM; on PRMT5 [5], above 500 nM; at PRMT5 [6], 50 to 500 nM. Besides, the MTAP intact/deleted ratio result in assay [4] (setting [9]) is reported as “B (an IC50 ratio greater than or equal to 3 fold but lower than 10 fold)”.
